We go through one compound from article PMC12408367 (2025).

As a reminder, the Kd is the equilibrium constant for the complex coming apart. A higher Kd goes with a looser complex.

Experiment [1] has as its system mutant (mut) 5′UTR of KDM5C mRNA (RNA, mRNA element) UGGCGUGGGCUGCGGUACGACGGCCACACGCC
Put plainly: microscale thermophoresis (Monolith NT.115). Particulars: DEPC water; RNA stock 40 nM; 1 mM putrescine stock (highest), 16-step 1:2 dilution.

Experiment [2] concerns wild-type (WT) 5′UTR of KDM5C mRNA (RNA, mRNA element) UGGCGAAGGCUGCGGUACGACGGCCACACGCC
Put plainly: microscale thermophoresis (Monolith NT.115). Conditions: DEPC water; RNA stock 40 nM; 1 mM putrescine stock, 16-step 1:2 dilution; 4PL sigmoidal fit. (MST reads how a fluorescent partner responds to local heating, with and without ligand.)

Turning to `NCCCCN`, the binding result in experiment [1] is “no”. Further, in experiment [2], the Kd is 52.3 µM.
